Assay results published in article PMC12022103 (Scientific Reports, 2025).
Values after ≈ are worked out from the molar mass of the structure shown. Non-standard residues stand in square brackets, D forms with d. Residues, ends and D or L forms follow the SMILES beside them. No end group written: not given here. AEEA = NCCOCCOCC(=O)O

Assays:
E. coli ATCC 25922 [1] = test: Minimum inhibitory concentration (MIC), broth dilution; format: cell-based, Escherichia coli; details: E. coli ATCC 25922; two-fold dilution in MH II broth, 5 × 10^5 CFU/mL, 18–24 h, 37 °C, OD600; triplicate, highest number reported; detection limit <0.5 and >128 µM
Method: (§1) The panel of bacterial reference strains used in this work for assessment of synthetic peptide activity originated from the American Type Culture Collection (ATCC) and was obtained from the Diagnostic section at the Department of Microbiology, Oslo University Hospital. The strains used were as follows: E. coli ATCC 25922, K. pneumoniae ATCC 13883, A. baumannii ATCC 17978, S. aureus ATCC 29213, and E. faecalis ATCC 29212.
(§2) Bacterial strains were plated on cation-adjusted Mueller-Hinton (MH II) agar plates and incubated at 37 °C overnight. The day after single colonies were picked and resuspended in sterile-filtered saline (0.9%). The OD of each bacterial suspension was adjusted to McFarland standard 0.5 using a spectrophotometer (UV-1800, Shimadzu), and the suspension further diluted 1:100 in MH II broth, corresponding to 10^6 colony forming units (CFU) per mL. The inoculum suspension was used for MIC, MBC, time-kill and protease stability assessments as described below. To ensure correct inoculum sizes, 10 µL of the bacterial suspensions were diluted 2000-fold in sterile-filtered saline (0.9%) and 100 µL plated onto MH II agar plates. After overnight incubation at 37 °C, colonies were counted. If found to be outside the acceptable number (20–80 colonies per plate corresponding to ∼10^6 CFU/mL), results from further analyses were discarded.
(§3) The peptides were serially diluted (two-fold) directly in 96-well plates (Greiner, MICROPLATE, 96 WELL, PP, U-BOTTOM, NATURAL, 650261) containing MH II broth, corresponding to concentrations in the range 256–0.5 µM. An equal volume of bacterial suspension was added to each well, resulting in a final inoculum of 5 × 10^5 CFU/mL and final peptide concentrations of 128–0.25 µM. The 96-well plates were incubated for 18–24 h at 37 °C, after which the OD of each well was measured at 600 nm in a plate reader (Victor Nivo, Perkin-Elmer). The minimum inhibitory concentration (MIC) was estimated as the lowest concentration of peptide that produced OD600 measurements similar to the control wells containing no bacteria. The experiments were performed in triplicate. Two-fold variations in MIC values were often observed between replicates.

E. faecalis ATCC 29212 [2] = test: as above; format: cell-based; details: E. faecalis ATCC 29212; MH II broth, 5 × 10^5 CFU/mL, 18–24 h, 37 °C, OD600; triplicate, highest number reported; detection limit <0.5 and >128 µM
Method: as §1, §2, §3

K. pneumoniae ATCC 13883 [3] = test: as above; format: cell-based; details: K. pneumoniae ATCC 13883; MH II broth, 5 × 10^5 CFU/mL, 18–24 h, 37 °C, OD600; triplicate, highest number reported; detection limit <0.5 and >128 µM
Method: as §1, §2, §3

A. baumannii ATCC 17978 [4] = test: as above; format: cell-based; details: MH II broth, 5 × 10^5 CFU/mL, 18–24 h, 37 °C, OD600, triplicate, highest number reported, detection limit <0.5 and >128 µM
Method: as §1, §2, §3

S. aureus ATCC 29213 [5] = test: as above; format: cell-based; details: S. aureus ATCC 29213; MH II broth, 5 × 10^5 CFU/mL, 18–24 h, 37 °C, OD600; triplicate, highest number reported; detection limit <0.5 and >128 µM
Method: as §1, §2, §3

P. aeruginosa [6] = test: as above; format: cell-based; details: MH II broth, 5 × 10^5 CFU/mL, 18–24 h, 37 °C, OD600; triplicate, highest number reported; detection limit <0.5 and >128 µM
P. aeruginosa [7] = test: Minimum bactericidal concentration (MBC); format: cell-based; details: 5 µL from MIC wells plated on MH II agar, 37 °C overnight, no visible colonies; triplicate, highest number reported
E. faecalis ATCC 29212 [8] = test: Minimum bactericidal concentration (MBC); format: cell-based; details: 5 µL from MIC wells plated on MH II agar, 37 °C overnight, no visible colonies, triplicate, highest number reported
Method: as §1, §2
(§4) In order to assess the minimum bactericidal concentration (MBC) of peptides, 5 µL from each well of the 96-well plate used for MIC analysis was plated onto MH II agar and incubated at 37 °C overnight. […] The experiments were performed in triplicate. Two-fold variations in MIC values were often observed between replicates.

K. pneumoniae ATCC 13883 [9] = test: Minimum bactericidal concentration (MBC); format: cell-based; details: 5 µL from MIC wells plated on MH II agar, 37 °C overnight, no visible colonies, triplicate, highest number reported
Method: as §1, §2, §4

A. baumannii ATCC 17978 [10] = test: Minimum bactericidal concentration (MBC); format: cell-based; details: 5 µL from MIC wells plated on MH II agar, 37 °C overnight, no visible colonies, triplicate, highest number reported
Method: as §1, §2, §4

S. aureus ATCC 29213 [11] = test: Minimum bactericidal concentration (MBC); format: cell-based; details: 5 µL from MIC wells plated on MH II agar, 37 °C overnight, no visible colonies, triplicate, highest number reported
Method: as §1, §2, §4

E. coli ATCC 25922 [12] = test: Minimum bactericidal concentration (MBC); format: cell-based, Escherichia coli; details: 5 µL from MIC wells plated on MH II agar, 37 °C overnight, no visible colonies, triplicate, highest number reported, detection limit <0.5 and >128 µM
Method: as §1, §2, §4

Row | Molecule | MIC, E. coli (E. coli ATCC 25922 [1]) [µM] | MIC, E. faecalis (E. faecalis ATCC 29212 [2]) [µM] | MIC, K. pneumoniae (K. pneumoniae ATCC 13883 [3]) [µM] | MIC, A. baumannii (A. baumannii ATCC 17978 [4]) [µM] | MIC, S. aureus (S. aureus ATCC 29213 [5]) [µM] | MIC, P. aeruginosa (P. aeruginosa [6]) [µM] | MBC, P. aeruginosa (P. aeruginosa [7]) [µM] | MBC, E. faecalis (E. faecalis ATCC 29212 [8]) [µM] | MBC, K. pneumoniae (K. pneumoniae ATCC 13883 [9]) [µM] | MBC, A. baumannii (A. baumannii ATCC 17978 [10]) [µM] | MBC, S. aureus (S. aureus ATCC 29213 [11]) [µM] | MBC, E. coli (E. coli ATCC 25922 [12]) [µM]
1 | CC[C@H](C)[C@H](NC(=O)[C@H](CC(C)C)NC(=O)[C@H](CCC(N)=O)NC(=O)[C@H](CC(C)C)NC(=O)[C@@H](NC(=O)[C@H](C)NC(=O)COCCOCCNC(=O)[C@H](CCCCN)NC(=O)[C@H](CCCCN)NC(=O)[C@H](CCCCN)NC(=O)[C@H](CCCCN)NC(=O)[C@H](CCCCN)NC(=O)[C@@H](N)C(C)C)C(C)C)C(=O)N[C@@H](CC(C)C)C(=O)N[C@@H](CCCCN)C(=O)N[C@@H](Cc1ccccc1)C(=O)N[C@@H](CC(C)C)C(N)=O [3c-N10] (H-VKKKKK[AEEA]AVLQLILKFL-NH2) | 16 (≈ 32.7 µg/mL) | 16 (≈ 32.7 µg/mL) | 16 (≈ 32.7 µg/mL) | 16 (≈ 32.7 µg/mL) | 32 (≈ 65.3 µg/mL) | 64 (≈ 131 µg/mL) | 32 (≈ 65.3 µg/mL) | 16 (≈ 32.7 µg/mL) | 16 (≈ 32.7 µg/mL) | 16 (≈ 32.7 µg/mL) | 32 (≈ 65.3 µg/mL) | 16 (≈ 32.7 µg/mL)
2 | CC[C@H](C)[C@H](NC(=O)[C@H](CC(C)C)NC(=O)[C@H](CCC(N)=O)NC(=O)[C@H](CC(C)C)NC(=O)[C@@H](NC(=O)[C@H](C)NC(=O)[C@H](CCCCN)NC(=O)[C@H](CCCCN)NC(=O)[C@H](CCCCN)NC(=O)COCCOCCNC(=O)[C@H](CCCCN)NC(=O)[C@H](CCCCN)NC(=O)[C@@H](N)C(C)C)C(C)C)C(=O)N[C@@H](CC(C)C)C(=O)N[C@@H](CCCCN)C(=O)N[C@@H](Cc1ccccc1)C(=O)N[C@@H](CC(C)C)C(N)=O [3d-N10] (H-VKK[AEEA]KKKAVLQLILKFL-NH2) | 16 (≈ 32.7 µg/mL) | 32 (≈ 65.3 µg/mL) | 32 (≈ 65.3 µg/mL) | 16 (≈ 32.7 µg/mL) | 32 (≈ 65.3 µg/mL) | 64 (≈ 131 µg/mL) | 64 (≈ 131 µg/mL) | 32 (≈ 65.3 µg/mL) | 32 (≈ 65.3 µg/mL) | 16 (≈ 32.7 µg/mL) | 32 (≈ 65.3 µg/mL) | 16 (≈ 32.7 µg/mL)
3 | CC[C@H](C)[C@H](NC(=O)[C@H](CC(C)C)NC(=O)[C@H](CCC(N)=O)NC(=O)[C@H](CC(C)C)NC(=O)[C@@H](NC(=O)[C@H](C)NC(=O)[C@H](CCCCN)NC(=O)[C@H](CCCCN)NC(=O)[C@H](CCCCN)NC(=O)[C@H](CCCCN)NC(=O)[C@H](CCCCN)NC(=O)[C@@H](N)C(C)C)C(C)C)C(=O)NCCOCCOCC(=O)N[C@@H](CC(C)C)C(=O)N[C@@H](CCCCN)C(=O)N[C@@H](Cc1ccccc1)C(=O)N[C@@H](CC(C)C)C(N)=O [3e-N10] (H-VKKKKKAVLQLI[AEEA]LKFL-NH2) | 128 (≈ 261 µg/mL) | > 128 | 128 (≈ 261 µg/mL) | 32 (≈ 65.3 µg/mL) | > 128 | 32 (≈ 65.3 µg/mL) | > 128 | > 128 | 128 (≈ 261 µg/mL) | 64 (≈ 131 µg/mL) | > 128 | 128 (≈ 261 µg/mL)
4 | KKKKAVLQLILLFL-NH2 [2a-N12] | > 128 | > 128 | > 128 | > 128 | > 128 | > 128 | > 128 | > 128 | > 128 | > 128 | > 128 | > 128
